The source of these data is patent publication US20140235613A1, “SUBSTITUTED DIARYL AZETIDINE DERIVATIVES AS SPHINGOSINE RECEPTOR MODULATORS” (Allergan, Inc., priority 2013, published 2014).

The assay has as its target T1, human S1P1 receptor (Homo sapiens, UniProt P21453).
T1 construct: expressed in transfected cells; membranes used
Kind of assay: GTP γ35S binding assay for S1P1 activity. The format is biochemical. Particulars: Activity potency: S1P1 receptor from GTP γ35S; membranes; test concentration range 0.08 to 5,000 nM. As to the method:
Compounds were tested for S1P1 activity using the GTP γ^35S binding assay. These compounds may be assessed for their ability to activate or block activation of the human S1P1 receptor in cells stably expressing the S1P1 receptor.
[…] binding was measured in the medium containing (mM) HEPES 25, pH 7.4, MgCl2 10, NaCl 100, dithitothreitol 0.5, digitonin 0.003%, 0.2 nM GTP γ^35S, and 5 μg membrane protein in a volume of 150 μl. Test compounds were included in the concentration range from 0.08 to 5,000 nM unless indicated otherwise. Membranes were incubated with 100 μM 5′-adenylylimmidodiphosphate for 30 min, and subsequently with 10 μM GDP for 10 min on ice.
Drug solutions and membrane were mixed, and then reactions were initiated by adding GTP γ^35S and continued for 30 min at 25° C. Reaction mixtures were filtered over Whatman GF/B filters under vacuum, and washed three times with 3 mL of ice-cold buffer (HEPES 25, pH7.4, MgCl2 10 and NaCl 100). Filters were dried and mixed with scintillant, and counted for ^35S activity using a β-counter. Agonist-induced GTP γ^35S binding was obtained by subtracting that in the absence of agonist. Binding data were analyzed using a non-linear regression method. In case of antagonist assay, the reaction mixture contained 10 nM S1P in the presence of test antagonist at concentrations ranging from 0.08 to 5000 nM.
Background: GTPγS resists hydrolysis and so accumulates on activated G proteins.

T1 sequence (P21453 whole entry): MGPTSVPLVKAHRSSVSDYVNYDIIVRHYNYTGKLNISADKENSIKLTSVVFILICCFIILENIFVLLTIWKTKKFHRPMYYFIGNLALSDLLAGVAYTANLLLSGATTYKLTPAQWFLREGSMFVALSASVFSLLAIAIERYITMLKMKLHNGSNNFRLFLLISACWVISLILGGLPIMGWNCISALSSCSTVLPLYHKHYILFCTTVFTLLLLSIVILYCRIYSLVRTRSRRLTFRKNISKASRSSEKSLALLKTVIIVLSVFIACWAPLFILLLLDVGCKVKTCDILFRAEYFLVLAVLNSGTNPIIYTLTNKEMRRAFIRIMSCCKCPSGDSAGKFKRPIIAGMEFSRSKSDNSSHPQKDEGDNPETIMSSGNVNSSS

Broadly, the EC50 is the concentration at which the effect is half-maximal. A low value points to a more potent agent. `O=C(O)C1CN(Cc2ccc(CC/N=c3\scc(-c4ccccc4)n3-c3ccccc3)cc2)C1` [Compound 1, 1-[4-(2-{[(2Z)-3,4-diphenyl-1,3-thiazol-2(3H)-ylidene]amino}ethyl)benzyl]azetidine-3-carboxylic acid]: a half-maximal effect (EC50) was put at 0.297 µM. Consider `O=C(O)C1CN(Cc2ccc(CCSc3ncc(-c4ccccc4)n3-c3ccccc3)cc2)C1` [Compound 2, 1-(4-{2-[(1,5-diphenyl-1H-imidazol-2-yl)thio]ethyl}benzyl)azetidine-3-carboxylic acid], for which a half-maximal effect (EC50) was put at 5.6 µM.
